According to patent US11007274B2, “Compounds for medicinal applications” (Ausvir Therapeutics Pty LTD, priority 2015, dated 2021):
pEC50: −log10 of the molar value. ≈ marks a conversion by molar mass, not a printed value. Where “and” joins values, the source holds several entries; their conditions need not be identical. Equal entries are not always repeated. Where two headings read alike, the source gives them in different places.

Experiments:
[1] = tested on: CA/07/2009; test: microbe, parasite or virus in culture; type: cell-based
[2] = tested on: Duck/MN/1525/81; type: cell-based; conditions: Table 7
[3] = tested on: Perth/16/2009; test: microbe, parasite or virus in culture; type: cell-based
[4] = tested on: Florida/4/2006; test: microbe, parasite or virus in culture; type: cell-based
[5] = tested on: A/Solomon Island/3/06; test: microbe, parasite or virus in culture; type: cell-based; conditions: unidentified influenza virus, read-out: EC50 A/Solomon Island/3/06
[6] = tested on: A/Townsville/74/2011; test: microbe, parasite or virus in culture; type: cell-based; conditions: unidentified influenza virus, read-out: EC50 A/Townsville/74/2011
[7] = tested on: A/Mississippi/03/01H274Y; type: cell-based, influenza virus
[8] = tested on: A/Perth/261/2009; test: microbe, parasite or virus in culture; type: cell-based; conditions: unidentified influenza virus, read-out: EC50 A/Perth/261/2009
[9] = tested on: A/Victoria/170/2012; test: microbe, parasite or virus in culture; type: cell-based; conditions: unidentified influenza virus, read-out: EC50 A/Victoria/170/2012
[10] = tested on: A/Sydney/5/97; test: microbe, parasite or virus in culture; type: cell-based; conditions: unidentified influenza virus, read-out: EC50 A/Sydney/5/97
[11] = tested on: A/Victoria/503/06; test: microbe, parasite or virus in culture; type: cell-based; conditions: unidentified influenza virus, read-out: EC50 A/Victoria/503/06
[12] = tested on: B/Townsville/2/2011; test: microbe, parasite or virus in culture; type: cell-based; conditions: unidentified influenza virus, read-out: EC50 B/Townsville/2/2011
[13] = tested on: A/PR/8 virus H1N1; test: Viral Plaque Reduction Assay (Table 23); type: cell-based, influenza virus; conditions: Table 23, plaque reduction, read-out: EC50
[14] = tested on: Influenza A virus H3N2, Perth/16/2009; test: microbe, parasite or virus in culture; type: cell-based; conditions: read-out: EC90
[15] = tested on: Influenza A virus H3N2, Perth/16/2009; test: microbe, parasite or virus in culture; type: cell-based
[16] = tested on: Influenza A virus H1N1, California/07/2009; test: microbe, parasite or virus in culture; type: cell-based; conditions: read-out: EC90
[17] = tested on: Influenza A virus H1N1, California/07/2009; test: microbe, parasite or virus in culture; type: cell-based
[18] = tested on: Influenza A virus H5N1, Duck/MN/1525/81; test: microbe, parasite or virus in culture; type: cell-based
[19] = tested on: Influenza B virus, B/Florida/4/2006; test: microbe, parasite or virus in culture; type: cell-based; conditions: Table 19, […], B/Florida/4/2006, read-out: EC50
[20] = tested on: Influenza B virus, B/Florida/4/2006; test: microbe, parasite or virus in culture; type: cell-based
[21] = in vitro
[22] = tested on: PR8 influenza virus; test: Viral clearance rates in the lung and nasal turbinates, weight loss (Table 6); type: in vivo, mice
[23] = tested on: CA/07/2009 virus H1N1; test: Viral Plaque Reduction Assay (Table 22); type: cell-based; conditions: Influenza A virus, Table 22, plaque reduction, read-out: EC50

## CC(=O)N[C@H]1[C@H]([C@H](OC(=O)NCCCCCNC(=O)[C@@H]2C[C@H](C(=O)NCCCCCNC(=O)O[C@@H]([C@@H]3OC(C(=O)O)=C[C@H](N=C(N)N)[C@H]3NC(C)=O)[C@H](O)CO)C[C@H](C(=O)N[C@@H](CC(=O)O)C(=O)O)C2)[C@H](O)CO)OC(C(=O)O)=C[C@@H]1N=C(N)N [MD242, CHTCA(Zp)2-L-Asp]
[1]; Table 7
  pEC50: 8.18
[1]; Table 7, MDCK cell line
  EC50 CA/07/2009: 0.008 µg/mL (≈ 0.00658 µM)
[2]
  pEC50: 9.15
[3]; Table 7
  pEC50: 8.46
  EC50 Perth/16/2009: 0.0042 µg/mL (≈ 0.00345 µM)
[4]; Table 7
  pEC50: 9.24
  EC50 Florida/4/2006: 0.00071 µg/mL (≈ 0.000584 µM)

## CC(=O)N[C@H]1[C@H]([C@H](OC(=O)NCCCCCCNC(=O)c2cc(C(=O)NCCCCCCNC(=O)O[C@@H]([C@@H]3OC(C(=O)O)=C[C@H](N=C(N)N)[C@H]3NC(C)=O)[C@H](O)CO)c(C(=O)O)cc2C(=O)O)[C@H](O)CO)OC(C(=O)O)=C[C@@H]1N=C(N)N [MD016, PK2 PYR(Z)2]
[1]
  pEC50: 8.11
  EC50 CA/07/2009: 0.009 µg/mL (≈ 0.00771 µM)
[2]
  pEC50: 9.29
[3]
  pEC50: 8.55
  EC50 Perth/16/2009: 0.0033 µg/mL (≈ 0.00283 µM)
[4]
  pEC50: 8.15
  EC50 Florida/4/2006: 0.0082 µg/mL (≈ 0.00703 µM)

## CC(=O)N[C@H]1C([C@H](OC(=O)NCCCCCCCCCNC(=O)[C@@H]2CC(C(=O)NCCCCCCNC(=O)O[C@H](C(O)CO)C3OC(C(=O)O)=C[C@H](NC(=N)N)[C@H]3NC(C)=O)C[C@H](C(=O)N[C@H](CC(=O)NC(CS(=O)(=O)O)C(=O)O)C(=O)N[C@H](CC(=O)NC(CS(=O)(=O)O)C(=O)O)C(=O)N[C@H](CC(=O)NC(CS(=O)(=O)O)C(=O)O)C(=O)O)C2)C(O)CO)OC(C(=O)O)=C[C@@H]1NC(=N)N (stereo partly drawn) [MD348, CHTCA(Z0)2-[D-Asp(D-Cyst)-D-Asp(D-Cyst)-D-Asp(D-Cyst)]-OH]
[5]
  pEC50: 10.80
[6]
  pEC50: 10.22
[7]
  pEC50: 9.57
[8]
  pEC50: 9.46
[9]
  pEC50: 9.08
[10]
  pEC50: 8.90
[11]
  pEC50: 8.35
[12]
  pEC50: 9.55
[13]; Influenza A virus
  pEC50: 8.72

## NC(=O)c1ncn([C@@H]2O[C@H](CO)[C@@H](O)[C@H]2O)n1 [Ribavirin, reference compound]
[14]
  EC90: 4.4 µg/mL (≈ 18 µM)
[15]
  EC50: 5 µg/mL (≈ 20.5 µM)
[16]
  EC90: 2.3 µg/mL (≈ 9.42 µM)
[17]
  EC50: 2.5 µg/mL (≈ 10.2 µM)
[18]
  EC90: 2.3 µg/mL (≈ 9.42 µM)
[19]
  EC50: 10 µg/mL (≈ 40.9 µM)
[20]
  EC50: 9.5 µg/mL (≈ 38.9 µM)
[21]; CC50, Table 9, line Neutral Red (Cytopathic effect/Toxicity)
  CC50: > 1000 µg/mL
[21]; CC50, Table 10, line Neutral Red (Cytopathic effect/Toxicity)
  CC50: > 1000 µg/mL
[21]; CC50, Table 11, line Neutral Red (Cytopathic effect/Toxicity)
  CC50: > 320 µg/mL
[21]; CC50, Table 12, line Neutral Red (Cytopathic effect/Toxicity)
  CC50: > 320 µg/mL
[21]; CC50, Table 13, line Neutral Red (Cytopathic effect/Toxicity)
  CC50: > 320 µg/mL
[21]; CC50, Table 14, line Neutral Red (Cytopathic effect/Toxicity)
  CC50: > 320 µg/mL
[21]; CC50, Table 15, line Neutral Red (Cytopathic effect/Toxicity)
  CC50: > 320 µg/mL
[21]; CC50, Table 16, line Neutral Red (Cytopathic effect/Toxicity)
  CC50: > 320 µg/mL
[21]; CC50, Table 18, line Neutral Red (Cytopathic effect/Toxicity)
  CC50: > 320 µg/mL
[21]; CC50, Table 19, Neutral Red (Cytopathic effect/Toxicity) rows
  CC50: > 320 µg/mL

## CC(=O)N[C@H]1[C@H]([C@H](OC(=O)NCCCCNC(=O)c2cc(C(=O)NCCCCNC(=O)O[C@@H]([C@@H]3OC(C(=O)O)=C[C@H](N=C(N)N)[C@H]3NC(C)=O)[C@H](O)CO)c(C(=O)N[C@H](CC(=O)NCS(=O)(=O)O)C(=O)NCS(=O)(=O)O)cc2C(=O)N[C@H](CC(=O)NCS(=O)(=O)O)C(=O)NCS(=O)(=O)O)[C@H](O)CO)OC(C(=O)O)=C[C@@H]1N=C(N)N [MD219, PK2 PYR(Zb)2[(D-Asp)(NHCH2SO3H)2]2]
[1]
  pEC50: 8.53
  EC50 CA/07/2009: 0.005 µg/mL (≈ 0.00292 µM)
[2]
  pEC50: 9.54
[3]
  pEC50: < 5.24
  EC50 Perth/16/2009: >10 µg/mL
[4]
  pEC50: 9.00
  EC50 Florida/4/2006: 0.0017 µg/mL (≈ 0.000992 µM)

## CC(=O)N[C@H]1[C@H]([C@H](OC(=O)NCCCCCCNC(=O)c2cc(C(=O)O)c(C(=O)NCCCCCCNC(=O)O[C@@H]([C@@H]3OC(C(=O)O)=C[C@H](N=C(N)N)[C@H]3NC(C)=O)[C@H](O)CO)cc2C(=O)O)[C@H](O)CO)OC(C(=O)O)=C[C@@H]1N=C(N)N [MD015, PK1 PYR(Z)2]
[1]; Table 7
  pEC50: 8.22
[1]; Table 7, MDCK cell line
  EC50 CA/07/2009: 0.007 µg/mL (≈ 0.006 µM)
[2]
  pEC50: 9.47
[3]; Table 7
  pEC50: 8.17
  EC50 Perth/16/2009: 0.0078 µg/mL (≈ 0.00668 µM)
[4]; Table 7
  pEC50: 8.68
  EC50 Florida/4/2006: 0.0025 µg/mL (≈ 0.00214 µM)

## CC(=O)N[C@H]1[C@H]([C@H](OC(=O)NCCCCNC(=O)[C@@H]2C[C@H](C(=O)NCCCCNC(=O)O[C@@H]([C@@H]3OC(C(=O)O)=C[C@H](N=C(N)N)[C@H]3NC(C)=O)[C@H](O)CO)C[C@H](C(=O)N[C@@H](CC(=O)O)C(=O)O)C2)[C@H](O)CO)OC(C(=O)O)=C[C@@H]1N=C(N)N [MD206, CHTCA(Zb)2-L-Asp]
[1]; Table 7
  pEC50: 8.77
[1]; Table 7, MDCK cell line
  EC50 CA/07/2009: 0.002 µg/mL (≈ 0.00168 µM)
[2]
  pEC50: 9.23
[3]; Table 7
  pEC50: 8.21
  EC50 Perth/16/2009: 0.0073 µg/mL (≈ 0.00614 µM)
[4]; Table 7
  EC50 Florida/4/2006: >10 µg/mL
[4]; Table 7, cells of the nM column printed in μM
  EC50: > 8400 nM

## CC(=O)N[C@H]1[C@H]([C@H](O)[C@H](O)CO)OC(C(=O)O)=C[C@@H]1N=C(N)N [Zanamivir, reference compound]
[22]; Day 1
  lung viral titre, Group mean titres: 2.60 log10
[22]; Day 3
  lung viral titre, Group mean titres: 4.28 log10
[22]; Day 5
  lung viral titre, Group mean titres: 4.85 log10
[22]; Day 7
  lung viral titre, Group mean titres: 4.72 log10
[22]; days 3, 4 and 5, Bonferroni post-test p<0.001
  weight loss compared with PBS: significantly different from PBS
[22]; mouse, in vivo
  lung viral titre, Individual titres: 4.44 log10 and 4.66 log10 and 4.97 log10 (2×) and 4.19 log10 and 3.16 log10 and 4.84 log10 and 3.00 log10 and 5.77 log10 and 5.66 log10
[7]
  pEC50: < 7.18
[23]
  EC50: 0.00197 µg/mL and 5.93 nM
[13]; Influenza A virus
  pEC50: 4.99

## CC(=O)N[C@H]1[C@H]([C@H](OC(=O)NCCCCCCCCNC(=O)CC(CC(=O)N[C@H](CS(=O)(=O)O)C(=O)N[C@H](CS(=O)(=O)O)C(=O)N[C@H](CS(=O)(=O)O)C(=O)O)C(=O)NCCCCCCCCNC(=O)O[C@@H]([C@@H]2OC(C(=O)O)=C[C@H](N=C(N)N)[C@H]2NC(C)=O)[C@H](O)CO)[C@H](O)CO)OC(C(=O)O)=C[C@@H]1N=C(N)N (stereo partly drawn) [MD343, PK2 TCA(Z0)2-[D-Cya]3-OH]
[13]
  pEC50: 8.90
